# Measurements as given in patent US6967100B2, “Pancreatic islet cell growth factors” (The Walter and Eliza Hall Institute of Medical Research, priority 2000, dated 2005).
# Experiments:
# [1] = tested on: 13.5 dpc fetal mouse pancreas cells; test: Low cell density serum-free culture of 13.5 dpc fetal mouse pancreatic cells: total and insulin-positive β cell number; type: cell-based; conditions: for laminin-1 induced/mediated β cell differentiation: with laminin-1, four days
# Procedure: (§1) Dissociated fetal pancreas cells were prepared from 13.5 dpc CBA mice. Pregnant mice at 13.5 dpc were killed by cervical dislocation and fetuses collected into ice cold sterile mouse tonicity phosphate-buffered saline (MTPBS). Fetal pancreata were harvested under an Olympus dissection microscope into RPMI 1640 medium and dissociated in a shaking water bath at 37° C. for 11 mins in Ca^2+/Mg^2+-free PBS containing 0.5% v/v trypsin/EDTA as described for testis by Bucci et al. (1986). After dissociation, trypsin was inactivated by addition of 8% w/v bovine serum albumin (BSA, fraction V) (Sigma, St. Louis, USA). The tissue was aspirated several times in a pipette, passed through a 27 gauge needle to make a single cell suspension and then rinsed in 10 μg/ml DNAse I (Promega, Madison, USA) in RPMI 1640 for 10 mins to reduce cellular aggregates. Cell suspensions were filtered through a 70-100 μm steel mesh, centrifuged at 400×g for 5 mins and the supernatant discarded. The cell pellet was resuspended in HYBRIDOMA medium and stored on ice. Cells were counted under a haemocytometer and viability was determined by exclusion of 0.2% v/v trypan blue dye. Pancreatic cells were plated in 8 chamber slides (Nunc) at 1.5×10^4 cells/well in 0.3 ml HYBRIDOMA medium 500 UI/ml penicillin and 500 μg/ml streptomycin. The cells were cultured in 10% v/v CO2, 90% v/v air at 37° C. with 100% humidity for four days in the presence of factors such as laminin-1 and BMPs.
# Fetuses at 15.5 and 18.5 dpc from homozygous (−/−) or heterozygous (+/−) α6 integrin gene targeted (Georges-Labouesse et al., 1996) or wild type mice were fixed overnight in Bouin ? s solution. After standard dehydration processing, fetuses were embedded into paraffin and sectioned at 7 μm. Cultured pancreatic cells were washed three times with warm mouse tonicity phosphate buffered saline (MT-PBS) and fixed with 4% paraformaldehyde (PFA) for 10 mins. Endogenous peroxidase was blocked by 3% v/v H2O2 in methanol for 8 mins. Prior to antibody staining, non-specific protein binding was blocked by incubation for at least 30 mins with MT-PBS containing 2% w/v bovine serum albumin or 2% v/v normal rabbit serum. Controls were performed by replacing first antibody with pre-immune serum from the appropriate species. Cell were incubated with primary antibodies for 90 mins at room temperature, followed by three thorough washes with MT-PBS. Horseradish peroxidase-conjugated rabbit anti-guinea pig or swine anti-rabbit immunoglobulins (Dako) were added for 30 mins at room temperature followed by thorough washes. Immunoperoxidase was detected with 3,3′-diamninobenzidine/H2O2 for 4-8 mins, and slides were counterstained with haematoxylin.
# Immunoperoxidase positive and negative cells were quantitated in the central strip of each culture chamber (a 90×90 mm square) under a microscope equipped with an eyepiece graticule (Olympus, Japan) at ×40 power and calibrated with a micrometer (Olympus). All data are presented as mean±s.e.m of at least three independent experiments.
# [2] = tested on: 13.5 dpc fetal mouse pancreas cells; test: Colony formation of 13.5 dpc fetal mouse pancreas cells cultured with BMPs and laminin-1; type: cell-based; conditions: 13.5 dpc fetal pancreas cells
# Procedure: as §1
# (§2) After four days in culture, cells were washed twice with warm MT-PBS and fixed with a 4% v/v paraformaldehye for 10 mins. In some cases, 100 μM BrdU was added to label proliferating cells 12 hours before fixation and detection with monoclonal antibody to BrdU and FITC-labelled rabbit anti-mouse immunoglobulin. For immunoperoxidase staining, endogenous peroxidase was blocked by 3% v/v H2O2 in methanol for 8 mins and, prior to addition of primary antibody, non-specific protein binding was blocked by incubation for at least 30 mins in MTPBS containing 2% w/v BSA or 2% v/v normal rabbit serum. Controls were performed by replacing primary antibody with pre-immune serum from the appropriate species. Tissue sections or cells were incubated with primary antibodies for 90 min RT, followed by three thorough washes with MTPBS. For immunoperoxidase staining, horseradish peroxidase-conjugated rabbit anti-guinea pig, swine anti-rabbit or rabbit anti-mouse immunoglobulins (Dako) diluted 1:80 were added for 30 mins at RT followed by thorough washes; colour was developed with 3,3′-diaminobenzidine/H2O2 for 4-8 mins and slides counterstained with haematoxylin.
# A pancreatic cell colony was defined as a spherical collection of 20 cells. Colonies were counted under a×10 power objective with an eyepiece graticule.
# [3] = tested on: E15.5 CBA mouse fetal pancreas cells; test: Cystic colony formation of E15.5 fetal mouse pancreas cells in laminin-1 overlay culture; type: cell-based
# Procedure: Pancreata were dissected from embryonic day (E)15.5 CBA mouse fetuses and dissociated into single cells as described (Jiang et al., 1999). Briefly, dissected pancreas was digested with trypsin/EDTA for 15 minutes at 37° C. in a shaking water bath. Cells were counted in a haemocytometer and viability determined by trypan blue dye exclusion. Each fetal pancreas yielded 50,000 viable cells (48,509±11,299, n=14). Dissociated cells were plated in 8 well chamber slides (Nunc, Naperville, USA) at 7.5×10^4 cells/well in 0.3 ml AIM V medium supplemented with N-2 (1:100, Gibco BRL Life Technologies, Gaithersburg, USA), 500 UI/ml penicillin and 500 μg/ml streptomycin. Laminin-1 (160 μg/ml), purified from murine Engelbreth-Holm-Swarm tumor basement membrane (Becton Dickinson Labware, Bedford, USA), was overlayed on cells in the presence of various growth factors. Cultures were incubated in 10% CO2 90% air at 37° C., for up to 6 days. Recombinant human BMP 6 and BMP 5, recombinant human TGF-β1 and recombinant activin A were purchased from R&D Systems (Minneapolis, USA). These factors, dissolved at a concentration of 10 ng/μl in mouse tonicity phosphate buffered saline (PBS) containing 0.1% w/v bovine serum albumin (BSA), were added at the start of culture. Phase contrast images of colonies were photographed with Olympus IX70 digitized camera.
# Colony formation was assessed at day 6 of culture. A colony was defined as a cellular sphere ≧30 μm in diameter, which contained more than 20 cells. The number of colonies per well was counted directly under a inverted microscope at ×10. Colony counts were performed using a blind design.
# [4] = tested on: 13.5 dpc fetal mouse pancreas cells; test: BrdU labelling of proliferating cells in 13.5 dpc fetal mouse pancreas cell culture; type: cell-based; conditions: 100 μM BrdU, laminin-1 (200 μg/ml), with or without GoH3, days 1-4
# Procedure: as §2, with “For immunoperoxidase staining, horseradish peroxidase-conjugated rabbit anti-guinea pig, swine anti-rabbit or rabbit anti-mouse immunoglobulins (Dako) diluted 1:80 were added for 30 mins at RT followed by thorough washes; colour was developed with 3,3′-diaminobenzidine/H2O2 for 4-8 mins and slides counterstained with haematoxylin.” left out
# In some cultures, 100 μM BrdU (Sigma) was included to label proliferating cells; cells were fixed by 4% PFA at days 1, 2, 3 and 4 for insulin and BrdU double immunofluorescence staining. […] Slides were observed and photomicrographed under a Zeis Axiopot fluorescence microscope.
# α6 integrin and α-DG = test: Indirect immunofluorescence for α6 integrin and α-DG expression in cultured fetal pancreas cells; type: cell-based, mouse; conditions: day 2 (laminin-1 alone: day 2 and four)
# Procedure: In some cultures, 100 μM BrdU (Sigma) was included to label proliferating cells; cells were fixed by 4% PFA at days 1, 2, 3 and 4 for insulin and BrdU double immunofluorescence staining. Fetuses were directly snap-frozen in liquid nitrogen, section at 8 μm, the sections air-dried for 40-60 mins and fixed in cold (−20° C.) acetone for 10 mins. Pre-treatment and primary antibody incubations were as described above, followed by incubation with Texas Red-conjugated goat anti-guinea pig immunoglobulins (Vector Laboratories, Burlingame, USA) or fluorescein isothiocyanate (FITC)-conjugated rabbit anti-mouse, -rat or -goat or swine anti-rabbit immunoglobulins (Dako) for 30 mins at room temperature and three thorough washes. Slides were observed and photomicrographed under a Zeis Axiopot fluorescence microscope.
compound,measurement,setting,value
C=C1[C@@H](C)[C@H]2[C@H](Cc3ccccc3)NC(=O)[C@]23[C@H](OC(C)=O)/C=C/[C@@](C)(O)C(=O)[C@@H](C)C/C=C/[C@H]3[C@@H]1O [Cytochalasin D],laminin-1 induced/mediated β cell differentiation,[1],increased
COc1cccc(-c2cc(=O)c3ccccc3o2)c1N [PD98059],laminin-1 induced/mediated β cell differentiation,[1],increased
O=c1c(-c2ccc(O)cc2)coc2cc(O)cc(O)c12 [genistein],laminin-1 induced/mediated β cell differentiation,[1],did not affect
CO[C@H]1[C@@H](OC)C[C@H](C)[C@@H](OC)C2=CC(=O)C=C(NC(=O)/C(C)=C/C=C\[C@H](OC)[C@@H](OC(N)=O)/C(C)=C/[C@@H]1C)C2=O [herbimycin A],laminin-1 induced/mediated β cell differentiation,[1],did not affect
"EGF: candidate growth factor (NSDSECPLSHDGYCLHDGVCMYIEALDKYACNCVVGYIGERCQYRDLKWWELR; Epidermal growth factor; UniProt P01133 971-1023, looked up)","proliferation or colony formation, candidate growth factors individually",[2],unable to promote proliferation or colony formation
HGF: candidate growth factor,"proliferation or colony formation, candidate growth factors individually",[2],unable to promote proliferation or colony formation
PYY: candidate growth factor,"proliferation or colony formation, candidate growth factors individually",[2],unable to promote proliferation or colony formation
TGF-β1: recombinant human TGF-β1 from R&D Systems,BMP 6-induced colony formation,"[3]; 100 ng/ml against BMP 6 10 ng/ml, laminin-1 160 μg/ml, p<0.01 (FIG. 10B)",antagonized
same,colony formation relative to laminin-1 alone,"[3]; 100 ng/ml, laminin-1 160 μg/ml (FIG. 10A)",suppressed colony formation to levels below that observed with laminin-1 alone
same,potency of inhibition of BMP 6-induced colony numbers relative to Activin A,"[3]; dose-dependency of inhibition, BMP 6 10 ng/ml (FIG. 10C)",100 fold
fibronectin,inhibition of pancreatic / β cell survival,"[1]; four days culture, compared to medium alone",no effect
gastrin,"proliferation or colony formation, candidate growth factors individually",[2],unable to promote proliferation or colony formation
heparin,effect on the GoH3-induced increase in β cell differentiation,"[1]; heparin at 100 μM, laminin-1 plus GoH3",blocked the effect of α6 integrin antibody GoH3
same,number of total and β cells,"[1]; with laminin-1, heparin at 100 μM, p<0.05",significantly decreased
laminin-1: heterotrimeric matrix glycoprotein prepared from murine Englebreth-Holm-Swarm tumour cell basement membrane,BrdU-positive cells,[4],2.5%
same,glucagon-positive cell number,[1]; in the presence of soluble laminin-1,unchanged
same,total cell number per well,"[1]; laminin-1 without or with 40 μg/ml GoH3, mean±s.e.m",4016±650
same,β cell number per well,"[1]; laminin-1 without or with 40 μg/ml GoH3, mean±s.e.m n=3",2265±240
same,increase in number of insulin-positive β cells,"[1]; soluble laminin-1, four days culture",60 fold
same,proportion of cells positive for both α6 integrin and α-DG,α6 integrin and α-DG,approximately 10%
